According to paper PMC9846164, “Oral administration of VDAC1-derived small molecule peptides increases circulating testosterone levels in male rats” (Frontiers in Endocrinology, 2023):
Entries after “also recorded” stand apart in the source; their conditions may differ. Square brackets hold non-standard residues; d marks the D form. Peptide text beside a SMILES is read from it.

Key:
Brown-Norway rats [1] = experiment: Oral gavage of peptides; plasma testosterone and corticosterone; format: in vivo, rat; settings: ~10 µg/kg oral, 2 hrs after gavage
Procedure: All peptides were dissolved in molecular grade, sterile double distilled water to obtain a 1 mM stock solution and stored at -20°C. Peptides used for oral screenings were prepared from 1 mM peptide stock and diluted in sterile tap water in a total volume of 1 ml.
All samples were measured in duplicate according to each of the manufacturer’s instructions. Serum, plasma, or intratesticular fluid samples were diluted until controls fitted the middle of the standard curve used.

[2] = Oral pharmacokinetics after single oral dose; format: in vivo, rat; settings: Brown-Norway, rat; single oral dose 10 mg peptide in 1 ml, fasted 4 hrs, jugular plasma 5-120 minutes, LC-MS/MS, N=4 in two rounds, Figure 4K; read-out: time to peak concentration in blood (converted)
Procedure: (§1) For all oral experiments, administration via gavage began between 8:30-8:50 am with a 3-minute delay between each rat. Animals used for pharmacokinetic studies were fasted for 4 hrs before starting gavage at 1 pm with a 3-minute delay between each rat.
(§2) For oral pharmacokinetic experiments, jugular blood samples were collected following a single oral dose of 10 mg peptide in 1 ml of vehicle after 5, 15, 30, 45, 60, 90, and 120 minutes. Protein inhibitor cocktail (ROCHE, cOmplete protease inhibitors, Cat# 11697498001), which was added into the EDTA collection tubes, was used for KVSQ and RVTQ peptides. Plasma was immediately extracted, and 100 μL of plasma were crashed with 300 µL of 100% methanol, spun at 14,000 RPM for 10 min, and the supernatant harvested. Re-extraction of the precipitant and solubilization of the pellet were as described above.
(§3) The analytical instrumentation consisted of a Thermo-Scientific ISQ Quantiva Triple Quadrupole Mass Spectrometer (QQQ), incorporating a heated electrospray ionization (HESI) source, and a Thermo-Scientific UltiMate™ 3000 UHPLC system (including, UltiMate™ 3000 RS autosampler). Analytical conditions were developed using a reference standard in a solution containing 5 µM of the corresponding peptide. The chromatography was resolved by isocratic elution of a binary solvent system incorporating (A) 0.1% Formic Acid (aq) and (B) ACN + 0.1% FA and using an Agilent Eclipse Plus™ C18 analytical column (100mm X 2.1mm ID, 1.8 µm particle). A 5µL injection volume and solvent flow rate of 150 µL/min were used. The MS/MS acquisition time was 7 min and total run time was 8.3 min/injection. The triple Quadrupole MS/MS instrumentation conditions were as follows: the HESI source voltage was 3200 V, the sheath gas […], auxilirary gas 20 L/min, sweep gas 2.0 L/min, the ion transfer temperature was 350°C, the vaporizer temperature was 350°C, the CID gas was 1.5 (mTorr) and the dwell time was 100 msec. The Q1 Resolution (FWHM) was 0.4 (unitless) and the Q3 resolution (FWHM) was 0.7 (unitless). […]

[3] = Peptide stability in plasma; format: in vitro ADME; settings: 4 µM peptide (KVSQ 12.5 µM) in 100 µl Brown-Norway rat plasma, 37°C, 1-120 minutes, methanol crash, LC-MS/MS SRM, % of 1 min level, N=3 mean ± SEM, Figure 4J
Procedure: For peptide stability experiments, plasma from Brown-Norway rats aged 90-140 days was collected and stored at -20°C until further use. The plasma was thawed, spun at 12,000 RPM for 10 min, and kept at 4°C. 4 μM of the various peptides were incubated with 100 μL of plasma that was warmed at 37°C for 10 min before use. After 1, 15, 30, 60, 90 or 120 minutes, the plasma/peptide samples were crashed with 300 µL of 100% methanol, spun at 14,000 RPM for 10 min, and the supernatant collected. The methanol in the supernatant was evaporated and the samples were re-extracted. The final pellet was solubilized in 5 μL methanol followed by the addition of 100 μL of sterile double distilled water. The extracted samples were transferred to plastic tubes and placed in the autoloader of the mass spectrometer.
as §3, with “(unitless). The instrument ran in a selected reaction monitoring (SRM), positive ion detection mode at various collision energies (CE) for the following mass transitions:” for “(unitless).”

Brown-Norway rats [4] = experiment: Oral pharmacokinetics after single oral dose; format: in vivo, rat; settings: single oral dose 10 mg in 1 ml; protease inhibitor cocktail in tubes for KVSQ and RVTQ; LC-MS/MS
Procedure: as §1, §2, §3

[5] = RdVTQ stability on storage (mass-spec area under the curve); format: physicochemical; settings: fresh vs in distilled water at 37°C for 7 - 28 days, freeze/thaw, stored at -20°C; Figure 5F
Procedure: as §3, with “(unitless). The instrument ran in a selected reaction monitoring (SRM), positive ion detection mode at various collision energies (CE) for the following mass transitions:” for “(unitless).”

Row | Compound | half-life in plasma (rank order) [3] | other results
1 | CC[C@@H](C)[C@@H](NC(=O)[C@H](CCCCN)NC(C)=O)C(=O)N[C@H](C(=O)N[C@@H](CCC(N)=O)C(N)=O)[C@@H](C)O [Ac-KdITQ-CONH2] (Ac-K[dI]TQ-NH2) |  | average testosterone levels at ~10 µg/kg (Brown-Norway rats [1]): increased, although not significantly
2 | CC[C@H](C)[C@H](NC(=O)[C@H](CCCNC(=N)N)NC(C)=O)C(=O)N[C@H](C(=O)N[C@@H](CCC(N)=O)C(=O)N[C@H](CO)C(N)=O)[C@@H](C)O [Ac-RITQdS-CONH2] (Ac-RITQ[dS]-NH2) | Ac-RITQdS-CONH2 > RdVTQ > Ac-RdITQ-CONH2 > RITQ > RVTQ > KVSQ | Tmax [2]: ~15 min
3 | CC[C@@H](C)[C@@H](NC(=O)[C@H](CCCNC(=N)N)NC(C)=O)C(=O)N[C@H](C(=O)N[C@@H](CCC(N)=O)C(N)=O)[C@@H](C)O [Ac-RdITQ-CONH2] (Ac-R[dI]TQ-NH2) | Ac-RITQdS-CONH2 > RdVTQ > Ac-RdITQ-CONH2 > RITQ > RVTQ > KVSQ | 
4 | CC(C)[C@H](NC(=O)[C@@H](N)CCCCN)C(=O)N[C@@H](CO)C(=O)N[C@@H](CCC(N)=O)C(=O)O [KVSQ] (H-KVSQ-OH) | rapid degradation; also recorded: Ac-RITQdS-CONH2 > RdVTQ > Ac-RdITQ-CONH2 > RITQ > RVTQ > KVSQ | detection in rat plasma after oral dose (Brown-Norway rats [4]): not detected
5 | CC[C@H](C)[C@H](NC(=O)[C@@H](N)CCCNC(=N)N)C(=O)N[C@H](C(=O)N[C@@H](CCC(N)=O)C(=O)O)[C@@H](C)O [RITQ] (H-RITQ-OH) | Ac-RITQdS-CONH2 > RdVTQ > Ac-RdITQ-CONH2 > RITQ > RVTQ > KVSQ | 
6 | CC(C)[C@H](NC(=O)[C@@H](N)CCCNC(=N)N)C(=O)N[C@H](C(=O)N[C@@H](CCC(N)=O)C(=O)O)[C@@H](C)O [RVTQ] (H-RVTQ-OH) | Ac-RITQdS-CONH2 > RdVTQ > Ac-RdITQ-CONH2 > RITQ > RVTQ > KVSQ | detection in rat plasma after oral dose (Brown-Norway rats [4]): not detected
7 | CC(C)[C@@H](NC(=O)[C@@H](N)CCCNC(=N)N)C(=O)N[C@H](C(=O)N[C@@H](CCC(N)=O)C(=O)O)[C@@H](C)O [RdVTQ] (H-R[dV]TQ-OH) | Ac-RITQdS-CONH2 > RdVTQ > Ac-RdITQ-CONH2 > RITQ > RVTQ > KVSQ | stability (area under the curve by mass-spec) [5]: highly stable
